From US6610289B2, “Mutated herpes simplex virus type 1 thymidine kinases and uses thereof” (The Board of Trustees of the University of Arkansas, priority 1998, dated 2003)
Where two headings read alike, the source gives them in different places.

Columns and labels:
[1] = test system: HSV-1 TK; assay: Substrate screen: phosphorylation of thymidine, TMP, GCV, ACV, dC, AZT by partially purified HSV-1 TKs; format: biochemical, herpes simplex virus type 1; conditions: for Product formation ACVMP: substrate ACV 50 μM; for Product formation AZTMP: substrate AZT 200 μM; for Product formation GCVMP: substrate GCV 50 μM; for Product formation TDP (TMPK activity): substrate TMP 20 μM; for Product formation dCMP: substrate dC 200 μM; for Product formation TMP: substrate thymidine 4 μM
Experimental: The activity of the purified HSV-1 TK was determined using the following standard reaction mixture for thymidine as a substrate (12): 3 μg of protein, 4 μM [^3H-methyl]thymidine (0.1 mCi/mmol), 20 mM potassium phosphate, pH 7.6, 1 mM DTT, 5 mM ATP, 5 mM MgCl2, 25 mM NaF, 40 mM KCl, and 0.5 mg/ml BSA in a total volume of 25 μl for 10 minutes at 37° C. To identify phosphorylated products, 20 μl of the reaction mixture was loaded onto a DE-81 filter and dried, washed once in 1 mM ammonium formate, twice more in 95% ethanol, and counted for radioactivity (12). Radioactivity was determined using an LKB 1214 Rackbeta liquid scintillation counter and corrected for background using controls with enzyme incubated in the absence of ATP. For TMPK activity, 20 μM [^3H-methyl]TMP was substituted for thymidine in the above assay mixture, and [^3H]TDP product was determined by separation from [^3H]TMP on thin layer PEI-cellulose plates developed in 0.35M LiCl (21). Amount of product converted to TDP was quantitated by scintillation counting of the excised TMP and TDP spots. The filter binding assay was used to quantitate the phosphorylation of [^3H]dC (200) μM and [^3H]AZT (200 μM) with the four enzymes. To compare relative enzymatic activities for [^3H]GCV (50 μM) and [^3H]ACV (50 μM), reactions were loaded onto small DE-52 columns packed in Pasteur pipettes as previously described (22).
As an initial screen for activity, each expressed HSV-1 TK enzyme was assayed for phosphorylation of the following substrates: thymidine (4 μM), TMP (20 μM), ACV (50 μM), GCV (50 μM), deoxycytidine (dC, 200 μM), or 3′-azido-2′,3′dideoxythymidine (AZT, 200 μM). Enzymatic conditions for optimal wild-type HSV-1 TK activities were utilized, thus results presented in Table 1 for each substrate were normalized to 100% values for comparative purposes. As expected, the wild-type Gln-125 HSV-1 TK efficiently phosphorylated each of these substrates. For each mutant, there was a striking decrease in their ability to phosphorylate pyrimidine nucleosides, and minimal TMPK activity for the TMP substrate.

[2] = test system: HSV-1 TK; format: biochemical, herpes simplex virus type 1; conditions: for Decrease in kcat for GCV compared to wild-type enzyme: substrate GCV
Experimental: For determination of Km values of thymidine and GCV for the four enzymes, the filter binding assay was utilized. The basic reaction components were as above, and the following enzyme concentrations, substrate ranges and times were used under linear initial velocity conditions: for [^3H]thymidine: parent Gln-125TK: 0.1 μg TK, 0.1-4 μM, 10 min; Asn-125TK: 0.2 μg TK, 0.25-10 μM, 15 min; Asp-125TK: 4 μg TK, 0.1-2.5 μM, 30 min; Glu-125TK 0.5 μg TK, 0.5-2.5 μM, 15 min. For [^3H]GCV: parent Gln-125TK: 2 μg TK, 5-100 μM, 15 min; Asn-125TK: 0.6 μg TK, 0.5-15 μM, 15 min; Asp-125TK: Not determined; Glu-125TK 4 μg TK, 50-1000 μM, 25 min. Each reaction was done in triplicate. For calculation of kinetic constants, non-linear regression Michaelis-Menten analyses were done using PSI-PLOT version 5.0 (Poly Software International).
Unlike the substrate screening assays presented in Table 1, linear velocity conditions for each enzyme and substrate were established prior to Km determinations.

[3] = test system: HCT-116 cells; assay: Clonal dilution assay for GCV sensitivity; format: cell-based, human; conditions: for Decrease in cell colony numbers: 24 hours, FIG. 4
Experimental: Parental HCT-116 (large square), wild-type HSV-1 TK cells (triangle), Asn-125TK cells (small square) and Glu-125TK cells (diamond) were treated with 0, 0.1, 1 or 10 μM GCV in triplicate for 24 hours. After this time, each well of cells was sequentially diluted from 1:10 to 1:10,000 in 1 ml of fresh media on a separate 24 well plate. After 7 days, surviving cell colonies were fixed in 100% methanol, stained with 0.1% methylene blue and counted.
For determination of GCV sensitivity, parental HCT-116 and each HSV-1 TK expressing cells were seeded in 24 well plates (2×10^5/well) in 1 ml of media. The next day, 0, 0.1, 1 or 10 μM GCV was added to each cell line in triplicate. After 24 hours, for each well the media was removed, cells were rinsed twice in fresh media, trypsinized, then media was added to 1 ml per well. Each well of cells was then sequentially diluted from 1:10 to 1:10,000 in 1 ml of fresh media on a separate 24 well plate. After 7 days, surviving cell colonies were fixed in 100% methanol, stained with 0.1% methylene blue and counted. For bystander effect assays, each of the three HSV-1 TK expressing cell lines were plated with parental HCT-116 cells (total 2×10^5/well) in the following proportions: (parental: HSV-1TK cells) 100%:0; 95%:5%; 90%:10%; 75%:25%; 50%:50% and 0:100%. After two days, 25 μM GCV was added in 1 ml fresh media. After 24 hrs, the media was removed and cells from each well were diluted from 1:10 to 1:10,000 as described above. After 7 days, surviving cell colonies were fixed and stained for counting.
Cells previously plated in 24 well plates were treated with GCV (0-10 μM) in triplicate for 24 hours. Following drug removal, cells were diluted and replated in fresh media from dilutions of 1:10 to 1:10,000. Surviving cell colonies were counted 6-7 days later.

[4] = substrate ganciclovir, read-out: Km ganciclovir
[5] = substrate thymidine, read-out: Km thymidine

Substance	Metabolism of GCV and ACV (in words) ([1]; GCV 50 μM, ACV 50 μM)	Product formation ACVMP [1]	Product formation AZTMP [1]	Product formation GCVMP [1]	Product formation TDP (TMPK activity) [1]	Product formation dCMP [1]	Product formation TMP [1]	Decrease in kcat for GCV compared to wild-type enzyme [2] [fold]	kcat ganciclovir ([2]; substrate ganciclovir) [s⁻¹]	Km [2, 4] [µM]	Change of kcat for thymidine relative to wild-type (in words) ([2]; substrate thymidine)	Increase of Km for thymidine relative to wild-type enzyme ([2]; substrate thymidine)	kcat thymidine ([2]; substrate thymidine) [s⁻¹]	Km [2, 5] [µM]	Decrease in cell colony numbers ([3]; 0.1 μM GCV)	Decrease in cell colony numbers ([3]; 10 μM GCV) [log]	Decrease in kcat for thymidine relative to wild-type ([2]; substrate thymidine) [fold]	Decrease in cell colony numbers ([3]; 1 μM GCV) [log]	Reduction in cell colony numbers ([3]; 20-110 μM GCV (data not shown))
Asn-125	retained most of these phosphorylation activities	92 % of wild-type Gln-125	9 % of wild-type Gln-125	85 % of wild-type Gln-125	6 % of wild-type Gln-125	0.2 % of wild-type Gln-125	22 % of wild-type Gln-125	6	0.08	50	doubled	~20 fold	0.13	20	2 log	4			
Gln-125 (WT): wild-type herpes simplex virus type 1 thymidine kinase with glutamine at position 125, parent enzyme [reference compound]		100 % of wild-type Gln-125	100 % of wild-type Gln-125	100 % of wild-type Gln-125	100 % of wild-type Gln-125	100 % of wild-type Gln-125	100 % of wild-type Gln-125		0.47	69			0.06	0.9	2 log	4			
Glu-125		7 % of wild-type Gln-125	48 % of wild-type Gln-125	5 % of wild-type Gln-125	7 % of wild-type Gln-125	0.2 % of wild-type Gln-125	43 % of wild-type Gln-125	12	0.04	473		approximately 3 fold	0.003	3	no reduction	2.5	20	0.7	over 3 log
